Laboratory results published in the supplement of paper PMC10307832.

What was measured:
Assay in all cases: relative viability (nuclei count vs DMSO), 5 days (fraction); higher = more cells survive
NCI-H2170 = test system: NCI-H2170
In short: (§1)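 Relative viability is defined as nuclei in treated wells over nuclei in vehicle wells. Duplicate plates were run and medians reported. Lung cancer cell lines in 1536-well plates were dosed by pin tool one day after seeding, with one drug or with a fixed anchor-drug dose plus five library-drug doses (not always all listed) in √10 steps, and nuclei were counted after 5 days.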

PC-14 = test system: PC-14
In short: as §1

NCI-H522 = test system: NCI-H522
In short: as §1

NCI-H2009 = test system: NCI-H2009
In short: as §1

NCI-H1755 = test system: NCI-H1755
In short: as §1

HARA = test system: HARA
In short: as §1

NCI-H2347 = test system: NCI-H2347
In short: as §1

EKVX = test system: EKVX
In short: as §1

UMC-11 = test system: UMC-11
In short: as §1

NCI-H1793 = test system: NCI-H1793
In short: as §1

NCI-H647 = test system: NCI-H647
In short: as §1

NCI-H358 = test system: NCI-H358
In short: as §1

COR-L23 = test system: COR-L23
In short: as §1

## COc1cc(N2CCC(C(N)=O)CC2)ccc1Nc1nc(N)c(Cl)c(Nc2ccccc2S(=O)(=O)C(C)C)n1 [HG-5-88-01] + Cc1nc(Nc2ncc(C(=O)Nc3c(C)cccc3Cl)s2)cc(N2CCN(CCO)CC2)n1 [Dasatinib] (partner 0.075 µM)
NCI-H2170; first compound 1.265 µM
  relative viability: 0.165
NCI-H2170; first compound 4 µM
  relative viability: 0.269
PC-14; first compound 0.04 µM
  relative viability: 0.234
PC-14; first compound 0.1265 µM
  relative viability: 0.185
PC-14; first compound 0.4 µM
  relative viability: 0.0685
PC-14; first compound 1.265 µM
  relative viability: 0.0374
PC-14; first compound 4 µM
  relative viability: 0.0307
NCI-H522; first compound 0.04 µM
  relative viability: 1.02
NCI-H522; first compound 0.1265 µM
  relative viability: 0.897
NCI-H522; first compound 0.4 µM
  relative viability: 0.813
NCI-H522; first compound 1.265 µM
  relative viability: 0.781
NCI-H522; first compound 4 µM
  relative viability: 0.849
NCI-H2009; first compound 0.04 µM
  relative viability: 0.26
NCI-H2009; first compound 0.1265 µM
  relative viability: 0.251
NCI-H2009; first compound 0.4 µM
  relative viability: 0.161
NCI-H2009; first compound 1.265 µM
  relative viability: 0.141
NCI-H2009; first compound 4 µM
  relative viability: 0.156
NCI-H1755; first compound 0.04 µM
  relative viability: 0.459
NCI-H1755; first compound 0.1265 µM
  relative viability: 0.514
NCI-H1755; first compound 0.4 µM
  relative viability: 0.369
NCI-H1755; first compound 1.265 µM
  relative viability: 0.29
NCI-H1755; first compound 4 µM
  relative viability: 0.15
HARA; first compound 0.04 µM
  relative viability: 0.25
HARA; first compound 0.1265 µM
  relative viability: 0.255
HARA; first compound 0.4 µM
  relative viability: 0.147
HARA; first compound 1.265 µM
  relative viability: 0.113
HARA; first compound 4 µM
  relative viability: 0.219
NCI-H2347; first compound 0.04 µM
  relative viability: 0.267
NCI-H2347; first compound 0.1265 µM
  relative viability: 0.319
NCI-H2347; first compound 0.4 µM
  relative viability: 0.318
NCI-H2347; first compound 1.265 µM
  relative viability: 0.303
NCI-H2347; first compound 4 µM
  relative viability: 0.295
EKVX; first compound 0.04 µM
  relative viability: 0.479
EKVX; first compound 0.1265 µM
  relative viability: 0.563
EKVX; first compound 0.4 µM
  relative viability: 0.435
EKVX; first compound 4 µM
  relative viability: 0.273
UMC-11; first compound 0.04 µM
  relative viability: 0.434
UMC-11; first compound 0.1265 µM
  relative viability: 0.449
UMC-11; first compound 1.265 µM
  relative viability: 0.469
UMC-11; first compound 4 µM
  relative viability: 0.409
NCI-H1793; first compound 0.1265 µM
  relative viability: 0.617
NCI-H1793; first compound 0.4 µM
  relative viability: 0.355
NCI-H1793; first compound 4 µM
  relative viability: 0.336
NCI-H647; first compound 0.04 µM
  relative viability: 0.162
NCI-H647; first compound 0.1265 µM
  relative viability: 0.216
NCI-H647; first compound 0.4 µM
  relative viability: 0.114
NCI-H647; first compound 1.265 µM
  relative viability: 0.0855
NCI-H647; first compound 4 µM
  relative viability: 0.112
NCI-H358; first compound 0.04 µM
  relative viability: 0.142
NCI-H358; first compound 0.1265 µM
  relative viability: 0.153
NCI-H358; first compound 0.4 µM
  relative viability: 0.164
NCI-H358; first compound 1.265 µM
  relative viability: 0.11
NCI-H358; first compound 4 µM
  relative viability: 0.138
COR-L23; first compound 0.04 µM
  relative viability: 0.536
COR-L23; first compound 0.1265 µM
  relative viability: 0.465
COR-L23; first compound 0.4 µM
  relative viability: 0.436
COR-L23; first compound 1.265 µM
  relative viability: 0.374
COR-L23; first compound 4 µM
  relative viability: 0.169
